Measured values reported in US20260159486A1, “BENZO[H]QUINAZOLINE-4-AMINE DERIVATIVES FOR THE TREATMENT OF CANCER” (Redona Therapeutics, Inc., priority 2021, published 2026).

What was measured:
[1] = tested on: phospho-SRSF6 in MDA-MB-468 cells; assay: Inhibition of phospho-SRSF6 levels in MDA-MB-468 cells (Western blot); format: cell-based; details: Homo sapiens, 2 hours, compared to DMSO control
Experimental: FIG. 1: FIG. 1 provides a representative Western blot showing reduction of phosphorylated-SRSF6 (P—SRSF6) in MDA-MB 468 cells by compounds of the invention. GAPDH was probed for by Western blotting to control for equal protein loading and for normalization of samples. The numbers below the blots show percent inhibition of the P—SRSF6 signal at 100 nM (A) or 10 nM (B) compared to DMSO control.
Assessment of Inhibition of Phospho-SRSF6 Levels in MDA-MB-468 Cells
MDA-MB-468 cells (ATCC, HTB-132) were cultured in DMEM (BioConcept cat. no. 1-26F03) supplemented with 10% FBS (Sigma cat. no. F9665), […] (Sigma cat. no. S8636), 1% Penicillin-Streptomycin (BioConcept cat. no. 4-01FOO-H). When cells reached a density of 70% o in 6-well plates (TPP cat. no. 92006), they were treated either with the test compound vehicle DMSO, or with experimental compounds at a final concentration of either 10 or 100 nM for 2 hours. Thereafter, the culture medium was removed and cells were collected by scraping in Lysis Buffer (20 mM Tris HCl pH7.5, 150 mM NaCl, 1 mM EGTA, 1 mM EDTA, 1% o Triton and 1% o NP-40) containing protease and phosphatase inhibitors (Halt™ Protease&Phosphatase inhibitor cocktail 100× ThermioScientific cat. no. 1861281) and 1 mM PMSF (Fluka cat. no. 93482). Cleared lysates were stored in Eppendorfftubes at −80° C. until use, and protein concentration in lysates was determined using Pierce 660 nm Protein Assay Reagent (ThermioScientific cat. no. 22660). 20 μg proteins were diluted in 4× Laemmli buffer (Biorad cat. no. 161-0747) containing 10% beta-mercaptoethanol, separated by SDS-PAGE using 10% gels, and then transferred to PVDF membranes (Trans Blot Turbo Transfer Pack BioRad cat. no. 1704156) by Trans-Blot® Turbo™ System semidry blotting methodology (BioRad). Primary antibodies were incubated in TBS-0.1% Tween-20 buffer containing 3% BSA Bovine Albumin Fr.V (Millipore cat. no. 81-053-3) overnight at 4° C. The following primary antibodies were used: Mouse anti-phosphoepitope SR proteins clone 1H4 (Millipore cat. no. MABE50) diluted 1:5000, and rabbit anti-GAPDH clone 14C10 (Cell Signaling cat. no. 2118S) to control for equal protein loading, diluted 1:2000. HRP-conjugated secondary antibodies were incubated one hour at room temperature diluted 1:5000 in TBS-0.1% Tween-20 buffer containing […] nonfat-dried bovine milk (Sigma cat. no. M7409). The following secondary antibodies were used: Goat anti-mouse-HRP (Jackson cat. no. 115-035-146) and goat anti-rabbit-HRP (Jackson cat. no. 111-035-144). Membranes were incubated with ECL Prime Western Blot Detection Reagent (Amersham cat. no. RPN2236) to detect specific signals using Fusion SOLO S device (Vilber Lourmat). Pixel intensity of the phopsho-SRSF6 (MW 55 kDa in reference to markers) and GAPDH (MW 37 kDa) signals in the Western blots were determined using Evolution-Capt image analysis software (v17.01, Vilber Lourmat). DMSO control was used to set the phospho-SRSF6 signal at baseline, phospho-SRSF6 signals for each sample were normalized by the respective GAPDH signals and percent intensity of P—SRSF6 signal at 10 and 100 nM compound compared to DMSO control was calculated (see FIG. 1).

recombinant human CLK3 = target: T1, recombinant human CLK3 (Homo sapiens, UniProt P49761); assay: CLK3 kinase assay (LANCE Ultra); format: biochemical; details: CLK3 0.5 nM, ATP 300 μM, 3 hours at 30° C.
T1 construct: purchased Thermo Fisher Scientific PV3826
T1 sequence (P49761 whole entry): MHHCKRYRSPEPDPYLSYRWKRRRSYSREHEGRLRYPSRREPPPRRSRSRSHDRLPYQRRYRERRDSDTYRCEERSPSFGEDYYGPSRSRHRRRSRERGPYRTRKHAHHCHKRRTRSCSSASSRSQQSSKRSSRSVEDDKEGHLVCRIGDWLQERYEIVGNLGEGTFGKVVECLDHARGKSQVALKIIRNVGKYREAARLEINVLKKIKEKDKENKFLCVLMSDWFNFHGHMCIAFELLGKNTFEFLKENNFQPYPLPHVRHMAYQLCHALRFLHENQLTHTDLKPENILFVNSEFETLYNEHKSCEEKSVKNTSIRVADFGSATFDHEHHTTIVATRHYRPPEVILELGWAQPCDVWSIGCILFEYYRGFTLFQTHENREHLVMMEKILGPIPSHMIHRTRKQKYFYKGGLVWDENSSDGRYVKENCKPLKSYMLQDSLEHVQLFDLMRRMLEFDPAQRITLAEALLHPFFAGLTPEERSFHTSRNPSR
Outline: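 Recombinant human CLK3 (0.5 nM) with ULight-CREBtide (50 nM) and 300 μM ATP, 3 h at 30 °C in kinase buffer; EDTA stop, then Eu-anti-phospho-CREB antibody (2 nM, 1 h RT), TR-FRET read at 665/620 nm. Inhibition normalized to DMSO and no-ATP wells; IC50 from 4-parameter fit, ten 1:3 concentrations in duplicate.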

COCCN(C)c1c(O[C@H]2CC[C@H](N)CC2)ccc2c1CC(C)(C)c1c(N)ncnc1-2 [Example 13, 8-(trans-4-aminocyclohexoxy)-N7-(2-methoxyethyl)-N7,5,5-trimethyl-6H-benzo[h]quinazoline-4,7-diamine]
inhibition at 0.01 µM ([1]; 10 nM, read-out: >50% p-SRSF6 reduction at 10 nM): < 50% | inhibition at 0.1 µM ([1]; 100 nM, read-out: >50% p-SRSF6 reduction at 100 nM): > 50% | IC50 (recombinant human CLK3): 30 to 100 nM
